In patent EP4043466B1, “PRC2 INHIBITORS” (Mirati Therapeutics, Inc., priority 2018, dated 2019):

Assays:
Karpas 422 cells = assay: Karpas 422 cell viability, CTG (Cell Titre Glo) assay; format: cell-based, human; conditions: Homo sapiens; Inhibition of proliferation of Karpas 422 cells (EZH2 Y641N); viability measured Day 4, Day 7 or Day 11, time point of the tabulated values not stated
Outline: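 CellTiter-Glo viability IC50s taken at Day 4, Day 7 and Day 11 of continuous compound exposure (3-fold series, 10µM top, 1.5nM lowest) in RPMI/20% FBS at 37 °C. Y641N-mutant EZH2 lymphoma line seeded at 1000 cells per well; medium and compound replaced on Day 7 for Day 11 read.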

[1] = tested on: PRC2-mediated histone H3 methylation; assay: Tri-Methyl Histone H3 (Lys 27) Sandwich ELISA in Pfeiffer cells: inhibition of PRC2-mediated histone H3 methylation; format: cell-based, human; conditions: Homo sapiens; Inhibition of EZH2-mediated histone H3 trimethylation; Pfeiffer cells (EZH2 A677G), 96 hours incubation
Text: The Pfeiffer cell line was established from a […] from a patient having metastatic diffuse large B-cell lymphoma (DLBCL). This cell line expresses a mutant form of the EZH2 enzyme (A677G) that results in enhanced EZH2 activity leading to increased methylation of histone H3 Lys27. Increased trimethylation of histone H3 Lys27 is believed to be implicated in tumorgenesis and poor clinical prognosis in lymphomas (McCabe et al., (2012) Nature 492:108-112).
Inhibition of PRC2-mediated histone H3 methylation by compounds of Formula (I) was measured by ELISA using a Tri-Methyl Histone H3 (Lys 27) Sandwich ELISA Kit (Cell Signaling Tech #7866C) in accordance with the manufacturer's instructions. Briefly, Pfeiffer cells were cultured in RPMI medium supplemented with 10% fetal bovine serum and 1% penicillin and 1% streptomycin in 96 well culture plates at 37°C to a density of 8000 cells/90µl/well and the cells were harvested. A series of 3-fold serial dilutions of each test compound of Formula (I) were prepared in RPMI medium and added to the cells at final concentrations ranging from 1µM to 0.15 nM. The plates were incubated at 37°C for 96 hours.
After incubation, the cells were pelleted by centrifugation in a pre-cooled 4°C rotor at 1, 100 rpm for 10 min and the supernatant was removed by aspiration. The cell pellet was resuspended in 55µl of Lysis Buffer (0.4M HCl) and incubated on ice with periodic shaking for 30 minutes. The lysed cells were subjected to centrifugation at 4, 200 rpm for 10 min at 4°C and the supernatant containing acid-soluble proteins was collected and the remainder discarded. The acid-soluble proteins were brought to a neutral pH by the addition of 20 µl of Neutralization Buffer (1 M Sodium phosphate, dibasic (pH 12.5), 2.5 mM DTT and 1 mM PMSF) and the neutralized lysates were analyzed by ELISA.
A 65 µl aliquot of each cell lysate was added to a well of a microwell strip, the microwells were sealed using tape and incubated either at 37°C for two hours or at 4°C overnight. After incubation, the tape was removed at the microwells were washed four times using 200 µl of 1X Wash Buffer. To each washed microwell, a 100 µl aliquot of an antitrimethyl histone H3 Lys27 Detection Antibody solution was added and the microwells were incubated at 37°C for one hour. The Detection Antibody solution was removed by aspiration and the wells were washed four times each using 200 µl of 1X Wash Buffer.
A 100 µl aliquot of an HRP-linked secondary antibody was added to each well, the wells were sealed with tape and incubated at 37°C for 30 min. The HRP-linked secondary antibody solution was removed by aspiration and the wells were washed four times using 200 µl of 1X Wash Buffer. A 100 µl aliquot of a TMB substrate was added to each well, the wells were sealed with tape and incubated at 37°C for 10 min or 25°C for 30 min. The reaction was stopped by the addition of 100 µl aliquot of a STOP solution and the plate was shaken briefly. The degree of histone H3 trimethylation was determined using a spectrophotometric readout by measuring the absorbance at 450 nm and then calculating the amount of trimethylated histone H3. A = ≤100 nM; B = >100 nM - ≤500 nM; C = >500 nM and N.D. = not determined.

[2] = target: purified human, His-tagged PRC2 complex (Homo sapiens, UniProt O75530+Q15910); assay: Hot Spot HMT assay: inhibition of PRC2 enzymatic activity (transfer of tritiated methyl from SAM to core histone, filter binding); format: biochemical; conditions: Inhibition of PRC2-mediated enzymatic activity; 10 nM PRC2 complex, 0.05 mg/ml core histone H3, 1 uM 3H-SAM, 1 hr at 30°C
Outline: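 Serial compound dilutions starting at 1.0 µM were pre-incubated 20 min at 30°C with 10 nM complex (His-EZH2, Flag-EED, His-SUZ12, His-AEBP2, His-RbAp48) and 0.05 mg/ml core H3. Reaction ran 1 hr at 30°C after adding 1 uM [3H]-SAM; scintillation counting followed filtration.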

Sequence of purified human, His-tagged PRC2 complex (Q15910 whole entry): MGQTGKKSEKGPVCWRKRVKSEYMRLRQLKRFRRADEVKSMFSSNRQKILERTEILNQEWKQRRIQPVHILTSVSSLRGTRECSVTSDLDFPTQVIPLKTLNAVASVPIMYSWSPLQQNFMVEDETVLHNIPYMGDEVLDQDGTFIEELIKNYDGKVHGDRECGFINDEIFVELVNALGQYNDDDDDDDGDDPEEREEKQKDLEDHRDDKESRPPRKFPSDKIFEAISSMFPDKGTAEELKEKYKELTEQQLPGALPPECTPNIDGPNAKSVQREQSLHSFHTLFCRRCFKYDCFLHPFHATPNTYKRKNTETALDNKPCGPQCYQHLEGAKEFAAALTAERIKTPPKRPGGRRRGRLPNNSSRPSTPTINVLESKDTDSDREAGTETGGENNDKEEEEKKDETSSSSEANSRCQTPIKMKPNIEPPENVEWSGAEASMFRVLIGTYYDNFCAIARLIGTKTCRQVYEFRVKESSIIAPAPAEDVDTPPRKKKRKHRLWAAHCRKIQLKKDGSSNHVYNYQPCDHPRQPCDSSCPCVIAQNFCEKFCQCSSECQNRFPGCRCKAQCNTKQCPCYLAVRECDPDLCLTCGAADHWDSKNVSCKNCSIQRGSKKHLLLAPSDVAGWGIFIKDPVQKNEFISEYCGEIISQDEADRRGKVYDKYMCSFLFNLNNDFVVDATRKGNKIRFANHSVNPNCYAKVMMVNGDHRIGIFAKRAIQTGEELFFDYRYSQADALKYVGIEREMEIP
Sequence of purified human, His-tagged PRC2 complex (O75530 whole entry): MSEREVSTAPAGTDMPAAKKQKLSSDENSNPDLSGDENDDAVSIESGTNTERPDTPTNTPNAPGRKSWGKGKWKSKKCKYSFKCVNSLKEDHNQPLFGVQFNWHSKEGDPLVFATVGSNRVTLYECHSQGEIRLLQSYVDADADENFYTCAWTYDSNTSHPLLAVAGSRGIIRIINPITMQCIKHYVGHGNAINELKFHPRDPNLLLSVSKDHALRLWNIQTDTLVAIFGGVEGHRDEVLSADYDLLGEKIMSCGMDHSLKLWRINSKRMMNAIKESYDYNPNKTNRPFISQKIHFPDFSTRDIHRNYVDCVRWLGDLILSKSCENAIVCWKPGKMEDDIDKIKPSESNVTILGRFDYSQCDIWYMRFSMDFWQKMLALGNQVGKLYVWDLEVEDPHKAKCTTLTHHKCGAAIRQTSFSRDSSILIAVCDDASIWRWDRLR
Sequence of purified human, His-tagged PRC2 complex (Q15022 whole entry partner): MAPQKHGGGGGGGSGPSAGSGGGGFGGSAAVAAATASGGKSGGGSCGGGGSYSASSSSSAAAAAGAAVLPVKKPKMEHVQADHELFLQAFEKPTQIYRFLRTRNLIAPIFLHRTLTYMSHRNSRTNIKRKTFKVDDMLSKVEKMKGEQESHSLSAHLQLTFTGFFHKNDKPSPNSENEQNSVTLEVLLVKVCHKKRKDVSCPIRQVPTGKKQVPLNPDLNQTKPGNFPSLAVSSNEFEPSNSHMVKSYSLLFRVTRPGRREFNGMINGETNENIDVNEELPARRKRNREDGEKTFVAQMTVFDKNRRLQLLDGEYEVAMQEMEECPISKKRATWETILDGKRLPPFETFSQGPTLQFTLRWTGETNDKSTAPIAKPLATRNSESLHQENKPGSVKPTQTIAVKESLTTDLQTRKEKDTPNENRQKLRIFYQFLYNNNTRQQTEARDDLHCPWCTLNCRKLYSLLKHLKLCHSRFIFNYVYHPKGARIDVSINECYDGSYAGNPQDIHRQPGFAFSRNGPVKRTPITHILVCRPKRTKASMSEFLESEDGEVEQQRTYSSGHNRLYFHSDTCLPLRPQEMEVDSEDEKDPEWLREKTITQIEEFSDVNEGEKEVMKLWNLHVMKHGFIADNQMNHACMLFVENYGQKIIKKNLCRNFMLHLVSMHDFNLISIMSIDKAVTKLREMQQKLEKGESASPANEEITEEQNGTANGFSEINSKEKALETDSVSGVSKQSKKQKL
Sequence of purified human, His-tagged PRC2 complex (Q6ZN18 whole entry partner): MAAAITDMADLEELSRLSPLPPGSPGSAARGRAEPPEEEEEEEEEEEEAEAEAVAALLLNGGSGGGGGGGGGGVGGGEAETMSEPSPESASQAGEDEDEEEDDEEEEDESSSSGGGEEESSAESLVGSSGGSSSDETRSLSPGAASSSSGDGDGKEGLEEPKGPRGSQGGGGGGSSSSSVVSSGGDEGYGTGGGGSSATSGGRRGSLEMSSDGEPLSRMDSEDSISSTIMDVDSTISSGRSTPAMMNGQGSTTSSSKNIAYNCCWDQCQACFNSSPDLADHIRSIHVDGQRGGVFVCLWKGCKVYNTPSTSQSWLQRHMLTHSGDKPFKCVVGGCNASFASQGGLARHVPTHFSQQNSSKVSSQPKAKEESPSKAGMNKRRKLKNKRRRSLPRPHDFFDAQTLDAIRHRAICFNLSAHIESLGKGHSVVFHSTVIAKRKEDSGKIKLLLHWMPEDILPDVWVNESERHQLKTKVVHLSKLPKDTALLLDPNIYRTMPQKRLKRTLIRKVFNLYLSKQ
Sequence of purified human, His-tagged PRC2 complex (Q09028 whole entry partner): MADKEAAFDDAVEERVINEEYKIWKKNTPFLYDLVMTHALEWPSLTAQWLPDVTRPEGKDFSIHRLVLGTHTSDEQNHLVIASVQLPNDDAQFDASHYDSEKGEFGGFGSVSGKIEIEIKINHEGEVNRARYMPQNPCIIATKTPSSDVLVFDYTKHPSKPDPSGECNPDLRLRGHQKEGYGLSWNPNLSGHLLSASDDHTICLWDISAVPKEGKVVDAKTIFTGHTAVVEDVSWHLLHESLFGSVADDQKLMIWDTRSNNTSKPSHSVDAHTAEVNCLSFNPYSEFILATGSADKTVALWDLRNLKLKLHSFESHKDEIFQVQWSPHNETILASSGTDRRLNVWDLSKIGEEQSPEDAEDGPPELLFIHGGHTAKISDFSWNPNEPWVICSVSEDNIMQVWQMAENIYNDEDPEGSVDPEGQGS

| SMILES | IC50 (Karpas 422 cells) [nM] | IC50 [1] [nM] | IC50 [2] [nM] |
| --- | --- | --- | --- |
| Cc1nn(C[C@@H](C)O)c(C)c1-c1cnc(NCc2c(F)ccc3c2CCO3)n2cc(C#N)nc12 [Example 66, (R)-5-(((5-fluoro-2,3-dihydrobenzofuran-4-yl)methyl)amino)-8-(1-(2-hydroxypropyl)-3,5-dimethyl-1H-pyrazol-4-yl)imidazo[1,2-c]pyrimidine-2-carbonitrile] | ≤ 250 | 100 to 500 | 100 to 500 |
| CN(C)CCc1cccc(-c2cnc(NCc3c(F)ccc4c3CCO4)n3cc(C#N)nc23)c1 [Example 217, 8-(3-(2-(dimethylamino)ethyl)phenyl)-5-(((5-fluoro-2,3-dihydrobenzofuran-4-yl)methyl)amino)imidazo[1,2-c]pyrimidine-2-carbonitrile] | ≤ 250 | 100 to 500 | < 100 |
| CNCc1ccc(-c2cnc(NCc3c(F)ccc4c3CCO4)n3cc(C#N)nc23)cc1 [Example 185, 5-(((5-fluoro-2,3-dihydrobenzofuran-4-yl)methyl)amino)-8-(4-((methylamino)methyl)phenyl)imidazo[1,2-c]pyrimidine-2-carbonitrile] | ≤ 250 | ≤ 100 | < 100 |
| CN(C)c1ccc(-c2cnc(NCc3c(F)ccc4c3CCO4)n3cc(C#N)nc23)cn1 [Example 60, 8-(6-(dimethylamino)pyridin-3-yl)-5-(((5-fluoro-2,3-dihydrobenzofuran-4-yl)methyl)amino)imidazo[1,2-c]pyrimidine-2-carbonitrile] | 250 to 500 | > 500 | 100 to 500 |
| Cc1ncccc1-c1cnc(NCc2c(F)ccc3c2CCO3)n2cc(C#N)nc12 [Example 105, 5-(((5-fluoro-2,3-dihydrobenzofuran-4-yl)methyl)amino)-8-(2-methylpyridin-3-yl)imidazo[1,2-c]pyrimidine-2-carbonitrile] | ≤ 250 | ≤ 100 | < 100 |
| Cc1nc(CN(C)C)ccc1-c1cnc(NCc2c(F)ccc3c2CCO3)n2cc(C#N)nc12 [Example 152, 8-(6-((dimethylamino)methyl)-2-methylpyridin-3-yl)-5-(((5-fluoro-2,3-dihydrobenzofuran-4-yl)methyl)amino)imidazo[1,2-c]pyrimidine-2-carbonitrile] | ≤ 250 | 100 to 500 | 100 to 500 |
| CN1CCOCC1c1ccc(-c2cnc(NCc3c(F)ccc4c3CCO4)n3cc(C#N)nc23)cc1 (stereo not drawn) [Example 227, 5-(((5-fluoro-2,3-dihydrobenzofuran-4-yl)methyl)amino)-8-(4-(4-methylmorpholin-3-yl)phenyl)imidazo[1,2-c]pyrimidine-2-carbonitrile] | ≤ 250 | 100 to 500 | < 100 |
| Cn1nccc(-c2cnc(NCc3c(F)ccc4c3CCO4)n3cc(C#N)nc23)c1=O [Example 194, 5-(((5-fluoro-2,3-dihydrobenzofuran-4-yl)methyl)amino)-8-(2-methyl-3-oxo-2,3-dihydropyridazin-4-yl)imidazo[1,2-c]pyrimidine-2-carbonitrile] | ≤ 250 | 100 to 500 | 100 to 500 |
| Cc1c(C#N)cccc1-c1cnc(NCc2c(F)ccc3c2CCO3)n2cc(C#N)nc12 [Example 176, 8-(3-cyano-2-methylphenyl)-5-(((5-fluoro-2,3-dihydrobenzofuran-4-yl)methyl)amino)imidazo[1,2-c]pyrimidine-2-carbonitrile] | 250 to 500 | 100 to 500 | < 100 |
| CN(C)Cc1ccc(-c2cnc(NCc3c(F)ccc4c3CCO4)n3cc(C#N)nc23)c(C#N)c1 [Example 198, 8-(2-cyano-4-((dimethylamino)methyl)phenyl)-5-(((5-fluoro-2,3-dihydrobenzofuran-4-yl)methyl)amino)imidazo[1,2-c]pyrimidine-2-carbonitrile] | ≤ 250 | 100 to 500 | < 100 |
| Cc1ncc(-c2cnc(NCc3c(F)ccc4c3CCO4)n3cc(C#N)nc23)c(C)n1 [Example 71, 8-(2,4-dimethylpyrimidin-5-yl)-5-(((5-fluoro-2,3-dihydrobenzofuran-4-yl)methyl)amino)imidazo[1,2-c]pyrimidine-2-carbonitrile] | ≤ 250 | 100 to 500 | < 100 |
| CN(C)S(=O)(=O)c1ccc(-c2cnc(NCc3c(F)ccc4c3CCO4)n3cc(C#N)nc23)cc1 [Example 58, 4-(2-cyano-5-(((5-fluoro-2,3-dihydrobenzofuran-4-yl)methyl)amino)imidazo[1,2-c]pyrimidin-8-yl)-N,N-dimethylbenzenesulfonamide] | ≤ 250 | 100 to 500 | < 100 |
| N#Cc1cn2c(NCc3c(F)ccc4c3CCO4)ncc(-c3ccc(S(N)(=O)=O)cc3)c2n1 [Example 47, 4-(2-cyano-5-(((5-fluoro-2,3-dihydrobenzofuran-4-yl)methyl)amino)imidazo[1,2-c]pyrimidin-8-yl)benzenesulfonamide] | ≤ 250 | ≤ 100 | < 100 |
| COCCOc1ccc(-c2cnc(NCc3c(F)ccc4c3CCO4)n3cc(C#N)nc23)c(C)c1 [Example 206, 5-(((5-fluoro-2,3-dihydrobenzofuran-4-yl)methyl)amino)-8-(4-(2-methoxyethoxy)-2-methylphenyl)imidazo[1,2-c]pyrimidine-2-carbonitrile] | 250 to 500 | 100 to 500 | 100 to 500 |
| CN(C)Cc1ccc(-c2cnc(NCc3c(F)ccc4c3CCO4)n3cc(C#N)nc23)c(F)c1 [Example 61, 8-(4-((dimethylamino)methyl)-2-fluorophenyl)-5-(((5-fluoro-2,3-dihydrobenzofuran-4-yl)methyl)amino)imidazo[1,2-c]pyrimidine-2-carbonitrile] | ≤ 250 | ≤ 100 | < 100 |
| Cc1ccc(-c2cnc(NCc3c(F)ccc4c3CCO4)n3cc(C#N)nc23)c(C)c1 [Example 192, 8-(2,4-dimethylphenyl)-5-(((5-fluoro-2,3-dihydrobenzofuran-4-yl)methyl)amino)imidazo[1,2-c]pyrimidine-2-carbonitrile] | > 500 | > 500 | > 500 |
| Cc1cc(-c2cnc(NCc3c(F)ccc4sccc34)n3cc(C#N)nc23)n(C)n1 [Example 81, 8-(1,3-dimethyl-1H-pyrazol-5-yl)-5-(((5-fluorobenzo[b]thiophen-4-yl)methyl)amino)imidazo[1,2-c]pyrimidine-2-carbonitrile] | > 500 | > 500 | > 500 |
| CN(C)C(=O)c1ccc(-c2cnc(NCc3c(F)ccc4c3CCO4)n3cc(C#N)nc23)cc1 [Example 180, 4-(2-cyano-5-(((5-fluoro-2,3-dihydrobenzofuran-4-yl)methyl)amino)imidazo[1,2-c]pyrimidin-8-yl)-N,N-dimethylbenzamide] | ≤ 250 | ≤ 100 | < 100 |
| N#Cc1cn2c(NCc3c(F)ccc4c3CCO4)ncc(-c3ccc4c(c3)CCNC4)c2n1 [Example 203, 5-(((5-fluoro-2,3-dihydrobenzofuran-4-yl)methyl)amino)-8-(1,2,3,4-tetrahydroisoquinolin-6-yl)imidazo[1,2-c]pyrimidine-2-carbonitrile] | 250 to 500 | 100 to 500 | 100 to 500 |
